From patent publication US20070092969A1, “Integrator system and method for rapidly determining effectiveness of a germicidal treatment” (priority 2005, published 2007)
Read-outs that look alike come from different tables or passages of the source.

System: biological indicators
Settings: for Biological Indicator Results: STERRAD 50, 6 minutes contact, plasma 400 watts
Protocol: The biological indicator is placed into the sterilizer with the equipment to be sterilized. At the end of the sterilization process, the biological indicator is removed from the sterilizer, and the carrier is immersed in a sterile culture medium. The culture medium and carrier are incubated for a predetermined time at an appropriate temperature. At the end of the incubation period, it is determined whether any microorganisms have grown in the growth medium. If there is no growth of microorganisms in the growth medium, it is assumed that the equipment in the sterilizer has been properly sterilized. If microorganism growth is observed, the sterilization process was not effective, and the articles in the sterilizer are rejected for use. The growth of microorganisms is determined through a signal such as the generation of turbidity or a color change in a pH indicator due to a pH change from byproducts of cell growth in the medium. Biological indicators are described, for example, in U.S. Pat. Nos. 5,552,320 and 6,436,659, both of which are incorporated herein by reference in their entirety.
A series of integrators was prepared by contacting paper disks with an aqueous solution of arginine. The integrators were placed in a STERRAD® 50 sterilizer with a load of equipment to be sterilized and several biological indicators. The paper disks are absorbing substrates.
The sterilizer was evacuated to 0.8 torr. Plasma was produced in the chamber for 15 minutes to condition the load. The sterilizer was evacuated further to 0.4 torr, and hydrogen peroxide was injected and contacted with the load, integrators, and biological indicators for 6 minutes.
The sterilizer was vented with air for 2 minutes. The sterilizer was evacuated again to 0.5 torr, and plasma was produced for an additional 2 minutes. The plasma power was 400 watts for both plasma exposures.

With OO [Hydrogen Peroxide, hydrogen peroxide] the “Biological indicator (BI) result” value (Hydrogen peroxide injection of 300 μL in the STERRAD 50 sterilizer) was “negative”, the “Biological Indicator Results” value (Hydrogen peroxide injection volume 100 μL) was 100% positive and the “Biological Indicator Results” value (Hydrogen peroxide injection volume 250 μL) was 40% positive. For the same molecule, the “Biological Indicator Results” value (Hydrogen peroxide injection volume 400 μL) was 0% positive and the “Biological Indicator Results” value (Hydrogen peroxide injection volume 500 μL) was 0% positive.
